# Data: patent US20140249139A1, “Quinazoline Derivatives” (NOVARTIS AG, priority 2011, published 2014)
# Legend:
# PI3K alpha = target: T1, PI3K alpha (Homo sapiens, UniProt P42336); assay: Enzymatic PI3K alpha isoform inhibition (lipid kinase activity, Kinase-Glo); format: biochemical; conditions: enzymatic assay
# T1 construct: for the p110-a subunit (with a deletion of the first 20 amino acids) are generated; His tag (C); made in house; host or cells: baculovirus BV1075; Tn5 (Trichoplusia ni) or TiniPro insect cells
# T1 sequence (P42336 with tags, fused parts or gaps limits assumed, species assumed): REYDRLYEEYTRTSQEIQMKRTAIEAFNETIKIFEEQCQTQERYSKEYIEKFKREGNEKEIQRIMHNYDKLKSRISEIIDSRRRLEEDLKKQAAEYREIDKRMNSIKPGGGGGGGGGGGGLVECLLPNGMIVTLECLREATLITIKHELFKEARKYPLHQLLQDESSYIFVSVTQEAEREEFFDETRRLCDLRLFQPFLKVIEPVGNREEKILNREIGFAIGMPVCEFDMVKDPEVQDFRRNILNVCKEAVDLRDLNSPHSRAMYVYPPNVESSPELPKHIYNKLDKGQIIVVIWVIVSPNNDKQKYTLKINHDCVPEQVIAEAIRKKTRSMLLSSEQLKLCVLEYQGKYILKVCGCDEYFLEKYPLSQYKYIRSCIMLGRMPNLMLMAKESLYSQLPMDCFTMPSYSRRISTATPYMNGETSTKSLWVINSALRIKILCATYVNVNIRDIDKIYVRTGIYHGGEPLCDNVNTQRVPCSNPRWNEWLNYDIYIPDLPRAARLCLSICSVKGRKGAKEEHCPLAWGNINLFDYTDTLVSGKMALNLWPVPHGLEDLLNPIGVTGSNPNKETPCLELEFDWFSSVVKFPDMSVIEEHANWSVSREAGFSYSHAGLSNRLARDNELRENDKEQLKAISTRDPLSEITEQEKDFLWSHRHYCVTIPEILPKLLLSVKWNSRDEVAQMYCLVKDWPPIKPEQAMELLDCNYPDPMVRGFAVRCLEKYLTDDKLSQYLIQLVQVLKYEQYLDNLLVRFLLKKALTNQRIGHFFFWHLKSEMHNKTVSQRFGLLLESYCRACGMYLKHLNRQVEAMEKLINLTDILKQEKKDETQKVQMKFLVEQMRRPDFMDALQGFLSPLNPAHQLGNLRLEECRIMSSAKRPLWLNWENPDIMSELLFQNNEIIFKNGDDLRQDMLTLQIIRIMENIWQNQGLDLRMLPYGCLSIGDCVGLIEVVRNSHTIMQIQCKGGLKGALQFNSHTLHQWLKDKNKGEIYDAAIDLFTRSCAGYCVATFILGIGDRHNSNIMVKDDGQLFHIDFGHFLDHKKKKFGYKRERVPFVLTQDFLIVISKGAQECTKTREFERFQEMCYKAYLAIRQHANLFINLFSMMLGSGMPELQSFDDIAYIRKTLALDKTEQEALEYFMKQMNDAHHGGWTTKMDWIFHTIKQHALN
# Description: (§1) The components of the assay are added per well as follows:
# (§2) IC50 is determined by a four parameter curve fitting routine that comes along with “excel fit”.
# (§3) Yet alternatively, for an ATP depletion assay, compounds of the formula I to be tested are dissolved in DMSO and directly distributed into a white 384-well plate at 0.5 μl per well. To start the reaction, 10 μl of 10 nM PI3 kinase and 5 μg/ml 1-alpha-phosphatidylinositol (PI) are added into each well followed by 10 μl of 2 μM ATP. The reaction is performed until approx 50% of the ATP is depleted, and then stopped by the addition of 20 μl of Kinase-Glo solution (Promega Corp., Madison, Wis., USA). The stopped reaction is incubated for 5 minutes and the remaining ATP is then detected via luminescence. IC50 values are then determined.
# PI3K delta = target: T2, PI3K delta (Homo sapiens, UniProt O00329); assay: Enzymatic PI3K delta isoform inhibition (lipid kinase activity, Kinase-Glo); format: biochemical; conditions: enzymatic assay
# T2 construct: for the full-length p110-d subunit are generated and fused by overlapping PCR; His tag (C); made in house; host or cells: baculovirus BV1060; Tn5 (Trichoplusia ni) or TiniPro insect cells
# T2 sequence (O00329 with tags, fused parts or gaps limits assumed, species assumed): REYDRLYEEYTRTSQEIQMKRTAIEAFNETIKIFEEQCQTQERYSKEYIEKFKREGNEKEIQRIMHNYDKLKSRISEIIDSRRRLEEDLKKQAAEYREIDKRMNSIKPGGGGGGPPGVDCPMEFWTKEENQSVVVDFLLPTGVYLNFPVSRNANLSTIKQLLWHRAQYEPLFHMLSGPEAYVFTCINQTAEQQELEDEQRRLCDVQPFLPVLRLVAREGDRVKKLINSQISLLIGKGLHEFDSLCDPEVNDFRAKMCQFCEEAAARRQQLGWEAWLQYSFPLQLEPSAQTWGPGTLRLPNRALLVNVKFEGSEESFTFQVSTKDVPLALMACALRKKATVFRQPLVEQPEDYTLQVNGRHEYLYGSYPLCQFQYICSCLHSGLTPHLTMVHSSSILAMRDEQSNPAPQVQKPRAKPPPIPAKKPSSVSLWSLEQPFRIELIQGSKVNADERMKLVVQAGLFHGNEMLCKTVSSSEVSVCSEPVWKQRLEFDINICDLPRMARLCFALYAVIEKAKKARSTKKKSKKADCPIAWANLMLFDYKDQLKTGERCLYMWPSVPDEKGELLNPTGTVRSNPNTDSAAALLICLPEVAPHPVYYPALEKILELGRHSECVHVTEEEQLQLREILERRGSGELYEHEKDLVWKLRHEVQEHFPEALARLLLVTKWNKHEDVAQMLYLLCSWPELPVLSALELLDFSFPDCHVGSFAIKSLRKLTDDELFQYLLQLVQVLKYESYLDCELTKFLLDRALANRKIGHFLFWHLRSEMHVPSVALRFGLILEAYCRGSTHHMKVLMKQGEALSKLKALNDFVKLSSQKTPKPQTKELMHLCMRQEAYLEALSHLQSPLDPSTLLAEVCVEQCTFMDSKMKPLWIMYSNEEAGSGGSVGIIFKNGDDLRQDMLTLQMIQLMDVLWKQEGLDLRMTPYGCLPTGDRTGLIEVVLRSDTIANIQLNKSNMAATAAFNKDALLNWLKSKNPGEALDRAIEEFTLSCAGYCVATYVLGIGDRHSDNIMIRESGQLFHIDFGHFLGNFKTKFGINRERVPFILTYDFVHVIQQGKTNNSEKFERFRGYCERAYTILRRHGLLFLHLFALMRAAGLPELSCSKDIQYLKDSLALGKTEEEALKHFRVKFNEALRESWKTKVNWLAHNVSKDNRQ
# Description: as §1, §2, §3
# murine B cells = assay: Murine B cell activation: CD86 expression on CD19 positive B cells after anti-IgM stimulation; format: cell-based; conditions: Balb/c mouse splenocytes, anti-IgM 30 μg/ml, 24 hours, read-out: mCD86/ IC50 CD86
# Description: PI3Kδ has been recognized to modulate B cell function when cells are stimulated through the B cell receptor (BCR) (Okkenhaug et al. Science 297:1031 (2002). For assessing the inhibitory property of compounds on B cell activation, the upregulation of activation markers CD86 and CD69 on murine B cells derived from mouse spleen […] is measured after stimulation with anti-IgM. CD69 is a well known activation marker for B and T cells (Sancho et al. Trends Immunol. 26:136 (2005). CD86 (also known as B7-2) is primarily expressed on antigen-presenting cells, including B cells. Resting B cells express CD86 at low levels, but upregulate it following stimulation of e.g. the BCR or IL-4 receptor. CD86 on a B cell interacts with CD28 on T cells. This interaction is required for optimal T cell activation and for the generation of an optimal IgG1 response (Carreno et al. Annu Rev Immunol. 20:29 (2002)).
# Spleens from Balb/c mice were collected, splenocytes were isolated and washed twice with RPMI containing 10% foetal bovine serum (FBS), 10 mM HEPES, 100 Units/ml penicilline/streptomycine. RPMI supplemented in this way is subsequently referred to as medium. The cells were adjusted to 2.5×10^6 cells/ml in medium and 200 μl cell suspension ([…]) were added to the appropriate wells of 96 well plates.
# Then the cells were stimulated by adding 50 μl anti-IgM mAb in medium (final concentration: 30 μg/ml). After incubation for 24 hours at 37° C., the cells were stained with the following antibody cocktails: anti-mouse CD86-FITC, anti-mouse CD69-PerCP-Cy5.5, anti-mouse CD19-PerCP for the assessment of B cells, and anti-mouse CD3-FITC, anti-mouse CD69-PE for the assessment of T cells (2 μl of each antibody/well). After one hour at room temperature (RT) in the dark the cells were transferred to 96 Deepwell plates. The cells were washed once with 1 ml PBS containing 2% FBS and after re-suspension in 200 μl the samples were analyzed on a FACS Calibur flow cytometer. Lymphocytes were gated in the FSC/SSC dot plot according to size and granularity and further analyzed for expression of CD19, CD3 and activation markers (CD86, CD69). Data were calculated from dot blots as percentage of cells positively stained for activation markers within the CD19+ or CD3+ population using BD CellQest Software.
# For assessing the inhibitory property of compounds, compounds were first dissolved and diluted in DMSO followed by a 1:50 dilution in medium. Splenocytes from Balb/c mice were isolated, re-suspended and transfered to 96 well plates as described above (200 μl/well). The diluted compounds or solvent were added to the plates (25 μl) and incubated at 37° C. for 1 hour. Then the cultures were stimulated with 25 μl anti-IgM mAb/well (final concentration 30 μg/ml) for 24 hours at 37° C. and stained with anti-mouse CD86-FITC and anti-mouse CD19-PerCP (2 μl of each antibody/well). CD86 expression on CD19 positive B cells was quantified by flow cytometry as described above.
Compound,IC50 (PI3K alpha),IC50 (PI3K delta),IC50 (murine B cells)
COc1ccc(-c2ccc3ncnc(-c4cccc(C(=O)N5CCN(C(C)=O)CC5)c4)c3c2)cn1 [Example 12],,,107 nM
"COc1ccc(-c2ccc3ncnc(-c4cncc(C(=O)N5CCNC[C@@H]5C)c4)c3c2)cc1C(F)(F)F [Example 84, {5-[6-(4-Methoxy-3-trifluoromethyl-phenyl)-quinazolin-4-yl]-pyridin-3-yl}-((S)-2-methyl-piperazin-1-yl)-methanone]",558 nM,9.5 nM,
"COc1ncc(-c2ccc3ncnc(-c4cccc(C(=O)N5CCN[C@H](C)C5)c4)c3c2)cc1C#N [Example 34, 2-Methoxy-5-{4-[3-((R)-3-methyl-piperazine-1-carbonyl)-phenyl]-quinazolin-6-yl}-nicotinonitrile]",488 nM,22.5 nM,
"COc1ccc(-c2ccc3ncnc(-c4cccc(C(=O)N5CCC(O)CC5)c4)c3c2)cn1 [Example 94, (4-Hydroxy-piperidin-1-yl)-{3-[6-(6-methoxy-pyridin-3-yl)-quinazolin-4-yl]-phenyl}-methanone]",174 nM,6 nM,
"COc1ccc(-c2ccc3ncnc(-c4cccc(C(=O)N5CCNC(C)(C)C5)c4)c3c2)cn1 [Example 88, (3,3-Dimethyl-piperazin-1-yl)-{3-[6-(6-methoxy-pyridin-3-yl)-quinazolin-4-yl]-phenyl}-methanone]",100 nM,2.67 nM,
COc1ncc(-c2ccc3ncnc(-c4cccc(C(=O)N5CCNCC5)c4)c3c2)cc1C#N [Example 35],262 nM,7 nM,
"COc1ncc(-c2ccc3ncnc(-c4ccnc(C(=O)N5CCN(C(C)=O)CC5)c4)c3c2)cc1C(F)(F)F [Example 114, 1-(4-{4-[6-(6-Methoxy-5-trifluoromethyl-pyridin-3-yl)-quinazolin-4-yl]-pyridine-2-carbonyl}-piperazin-1-yl)-ethanone]",71 nM,3 nM,
"COc1cc(C(=O)N2CCN(C(C)=O)CC2)cc(-c2ncnc3ccc(-c4ccc(OC)nc4)cc23)c1 [Example 106, 1-(4-{3-Methoxy-5-[6-(6-methoxy-pyridin-3-yl)-quinazolin-4-yl]-benzoyl}-piperazin-1-yl)-ethanone]",440 nM,5 nM,
CNc1ccc(-c2ccc3ncnc(-c4cccc(C(=O)N5CCN(C)CC5)c4)c3c2)cn1 [Example 41],708 nM,20.5 nM,
CN1CCN(C(=O)c2cccc(-c3ncnc4ccc(-c5cc(NS(C)(=O)=O)cc(C(F)(F)F)c5)cc34)c2)CC1 [Example 47],> 9100 nM,27 nM,
COc1ccc(-c2ccc3ncnc(-c4cncc(C(=O)N5CCOC(C)(C)C5)c4)c3c2)cc1C(F)(F)F [Example 66],763 nM,9.5 nM,
"CCN1CCN(C(=O)c2cccc(-c3ncnc4ccc(-c5ccc(OC)nc5)cc34)c2)CC1 [Example 86, (4-Ethyl-piperazin-1-yl)-{3-[6-(6-methoxy-pyridin-3-yl)-quinazolin-4-yl]-phenyl}-methanone]",380 nM,15.5 nM,
"COc1ccc(-c2ccc3ncnc(-c4cc(C(=O)N5CCN(C(C)=O)CC5)cc(C(F)(F)F)c4)c3c2)cn1 [Example 101, 1-(4-{3-[6-(6-Methoxy-pyridin-3-yl)-quinazolin-4-yl]-5-trifluoromethyl-benzoyl}-piperazin-1-yl)-ethanone]",1270 nM,16 nM,
"COc1ncc(-c2ccc3ncnc(-c4cc(C)cc(C(=O)N5CCN(C(C)=O)CC5)c4)c3c2)cc1C#N [Example 109, 5-{4-[3-(4-Acetyl-piperazine-1-carbonyl)-5-methyl-phenyl]-quinazolin-6-yl}-2-methoxy-nicotinonitrile]",435 nM,14 nM,

# Other lines, results leading:
IC50 (PI3K alpha),IC50 (PI3K delta),IC50 (murine B cells),Compound
123 nM,4.5 nM,,"COc1ccc(-c2ccc3ncnc(-c4cncc(C(=O)N5CCN(C)C(C)(C)C5)c4)c3c2)cn1 [Example 78, {5-[6-(6-Methoxy-pyridin-3-yl)-quinazolin-4-yl]-pyridin-3-yl}-(3,3,4-trimethyl-piperazin-1-yl)-methanone]"
542 nM,11 nM,,COc1ncc(-c2ccc3ncnc(-c4cncc(C(=O)N5CCN(C)CC5)c4)c3c2)cc1C#N [Example 56]
614 nM,17.8 nM,,COc1ncc(-c2ccc3ncnc(-c4cccc(C(=O)N5CCN(C)C(C)(C)C5)c4)c3c2)cn1 [Example 26]
97 nM,3 nM,,COc1ncc(-c2ccc3ncnc(-c4cncc(C(=O)N5CCOCC5)c4)c3c2)cc1C(F)(F)F [Example 68]
60.5 nM,< 3 nM,,COc1ncc(-c2ccc3ncnc(-c4cncc(C(=O)N5CCN(C)C(C)(C)C5)c4)c3c2)cc1F [Example 73]
360 nM,10 nM,,"COc1ccc(-c2ccc3ncnc(-c4cncc(C(=O)N5CCNC(C)(C)C5)c4)c3c2)cn1 [Example 79, (3,3-Dimethyl-piperazin-1-yl)-{5-[6-(6-methoxy-pyridin-3-yl)-quinazolin-4-yl]-pyridin-3-yl}-methanone]"
69.5 nM,3 nM,,COc1ncc(-c2ccc3ncnc(-c4cncc(C(=O)N5CCN(C)C(C)(C)C5)c4)c3c2)cc1C [Example 72]
